Measurements from PMC2678953 (Journal of peptide science : an official publication of the …, 2008).

Legend:
GVIA iPLA2 = molecular target: T1, GVIA iPLA2 (Homo sapiens, UniProt O60733); assay: in vitro GVIA iPLA2 activity assay, XI; assay type: biochemical
T1 sequence (O60733 1-806): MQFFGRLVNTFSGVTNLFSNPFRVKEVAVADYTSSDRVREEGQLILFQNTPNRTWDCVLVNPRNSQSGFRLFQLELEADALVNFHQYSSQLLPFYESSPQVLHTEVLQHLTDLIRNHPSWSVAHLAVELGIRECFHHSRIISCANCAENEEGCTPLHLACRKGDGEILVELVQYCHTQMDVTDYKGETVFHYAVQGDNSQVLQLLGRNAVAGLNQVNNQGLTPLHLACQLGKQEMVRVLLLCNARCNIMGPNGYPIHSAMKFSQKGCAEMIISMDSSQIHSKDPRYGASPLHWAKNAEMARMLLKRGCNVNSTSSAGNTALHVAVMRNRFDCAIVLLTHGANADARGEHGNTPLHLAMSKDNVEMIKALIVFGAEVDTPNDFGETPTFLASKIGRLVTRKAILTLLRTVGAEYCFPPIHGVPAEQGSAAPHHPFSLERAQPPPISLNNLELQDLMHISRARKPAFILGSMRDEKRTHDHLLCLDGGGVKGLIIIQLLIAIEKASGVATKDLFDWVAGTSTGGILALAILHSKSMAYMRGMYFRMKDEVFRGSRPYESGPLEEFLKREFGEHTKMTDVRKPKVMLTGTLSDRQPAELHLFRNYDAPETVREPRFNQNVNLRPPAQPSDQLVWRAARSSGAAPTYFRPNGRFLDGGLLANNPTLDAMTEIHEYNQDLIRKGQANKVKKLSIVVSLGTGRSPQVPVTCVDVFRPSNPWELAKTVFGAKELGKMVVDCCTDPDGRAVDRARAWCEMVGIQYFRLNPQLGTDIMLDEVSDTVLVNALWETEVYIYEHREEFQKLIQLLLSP

GIVA cPLA2 = molecular target: T2, GIVA cPLA2 (Homo sapiens, UniProt P47712); assay: mixed-micelle PLA2 activity assay; assay type: biochemical
T2 sequence (P47712 1-749): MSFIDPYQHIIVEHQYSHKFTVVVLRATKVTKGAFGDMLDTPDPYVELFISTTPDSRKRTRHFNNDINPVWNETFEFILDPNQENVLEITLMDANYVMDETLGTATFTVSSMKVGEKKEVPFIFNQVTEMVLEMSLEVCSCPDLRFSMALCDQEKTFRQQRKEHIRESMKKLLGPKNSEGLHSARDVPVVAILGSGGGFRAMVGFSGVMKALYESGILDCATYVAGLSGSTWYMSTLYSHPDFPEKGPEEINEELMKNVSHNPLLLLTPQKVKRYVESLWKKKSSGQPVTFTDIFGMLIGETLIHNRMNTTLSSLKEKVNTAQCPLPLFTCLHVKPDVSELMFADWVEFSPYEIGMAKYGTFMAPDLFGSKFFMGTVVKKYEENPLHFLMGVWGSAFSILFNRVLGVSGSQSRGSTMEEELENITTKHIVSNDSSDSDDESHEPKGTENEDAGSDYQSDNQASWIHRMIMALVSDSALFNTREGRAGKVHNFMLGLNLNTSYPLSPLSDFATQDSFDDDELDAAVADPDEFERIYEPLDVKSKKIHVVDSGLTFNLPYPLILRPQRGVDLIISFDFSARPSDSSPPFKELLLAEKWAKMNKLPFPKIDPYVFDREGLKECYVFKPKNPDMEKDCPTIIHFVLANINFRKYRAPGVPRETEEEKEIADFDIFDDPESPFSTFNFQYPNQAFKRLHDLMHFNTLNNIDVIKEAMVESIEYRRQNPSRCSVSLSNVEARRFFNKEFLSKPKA

SMILES | GVIA iPLA2 (GVIA iPLA2) | GIVA cPLA2 (GIVA cPLA2)
CCCCCCCCCCCCCCC(=O)C(=O)NCCCNS(=O)(=O)c1ccc(C)cc1 [5a, N-(3-(4-Methylphenylsulfonamido)propyl)-2-oxohexadecanamide] | 0.076 ± 0.020 mole fraction (XI(50)) | 0.055 ± 0.006 mole fraction (XI(50))
CCCCCCCCCCCCCCC(=O)C(=O)N[C@@H](CCCC)CCCNS(C)(=O)=O [14a, (S)-N-[1-(Methylsulfonamido)octan-4-yl]-2-oxohexadecanamide] | 0.060 ± 0.037 mole fraction (XI(50)) | 0.029 ± 0.019 mole fraction (XI(50))
CCCCCCCCCCCCCCC(=O)C(=O)N[C@@H](CCCC)CCCNS(=O)(=O)c1ccc(C)cc1 [14b, (S)-N-[1-(4-Methylphenylsulfonamido)octan-4-yl]-2-oxohexadecanamide] | – | 0.033 ± 0.018 mole fraction (XI(50))
CCCCCCCCCCCCCCC(=O)C(=O)NCCCC(=O)N(C)S(=O)(=O)c1ccc(C)cc1 [compound 20, N-[4-(N,4-Dimethylphenylsulfonamido)-4-oxobutyl)-2-oxohexadecanamide] | – | 0.033 ± 0.018 mole fraction (XI(50))
